{
  "source": "patent US20240415756A1",
  "about": "“PEPTIDES AND COMPOSITIONS FOR USE IN COSMETICS” (LIPOTRUE, S.L., priority 2022, published 2024)",
  "key": {"[1]": {"tested_on": "voltage-gated sodium channels", "assay": "QPatch48 HT electrophysiology of sodium channels in SHSY-5Y cells", "assay_type": "cell-based, human", "procedure": "Using SHSY-5Y cells, electrophysiology was performed to measure ion channel activity using the QPatch48 HT (Sophion, Denmark). The samples tested were: • Negative control: 0.05% (v/v) Bovine Serum Albumin • Positive control: Tetradotoxin (TTX) at a concentration of 3 nM, 10 nM and 30 nM. • SEQ ID NO: 2—NH2 at a concentration of 0.005 mg/mL, 0.01 mg/ml and 0.05 mg/mL. • SEQ ID NO: 3—NH2 at a concentration of 0.005 mg/mL, 0.01 mg/ml and 0.05 mg/mL. • SEQ ID NO: 4—NH2 at a concentration of 0.005 mg/mL, 0.01 mg/ml and 0.05 mg/mL. • SEQ ID NO: 5—NH2 at a concentration of 0.005 mg/ml, 0.01 mg/mL and 0.05 mg/mL. • SEQ ID NO: 6—NH2 at a concentration of 0.005 mg/mL, 0.01 mg/ml and 0.05 mg/mL.\nThe percentage inhibition for each test dose application period was calculated as a reduction in mean cursor value (peak current) relative to the cursor value measured at the end of the vehicle control (pre-drug) and normalized to the maximum inhibition recorded with the supramaximal addition of TTX."}, "[2]": {"target": "T1, human NaV1.3 (Homo sapiens, UniProt Q9NY46)", "T1 construct": "expressed in transfected cells; host or cells: Chinese Hamster Ovary (CHO) cells, stably transfected", "T1 sequence (Q9NY46 whole entry)": "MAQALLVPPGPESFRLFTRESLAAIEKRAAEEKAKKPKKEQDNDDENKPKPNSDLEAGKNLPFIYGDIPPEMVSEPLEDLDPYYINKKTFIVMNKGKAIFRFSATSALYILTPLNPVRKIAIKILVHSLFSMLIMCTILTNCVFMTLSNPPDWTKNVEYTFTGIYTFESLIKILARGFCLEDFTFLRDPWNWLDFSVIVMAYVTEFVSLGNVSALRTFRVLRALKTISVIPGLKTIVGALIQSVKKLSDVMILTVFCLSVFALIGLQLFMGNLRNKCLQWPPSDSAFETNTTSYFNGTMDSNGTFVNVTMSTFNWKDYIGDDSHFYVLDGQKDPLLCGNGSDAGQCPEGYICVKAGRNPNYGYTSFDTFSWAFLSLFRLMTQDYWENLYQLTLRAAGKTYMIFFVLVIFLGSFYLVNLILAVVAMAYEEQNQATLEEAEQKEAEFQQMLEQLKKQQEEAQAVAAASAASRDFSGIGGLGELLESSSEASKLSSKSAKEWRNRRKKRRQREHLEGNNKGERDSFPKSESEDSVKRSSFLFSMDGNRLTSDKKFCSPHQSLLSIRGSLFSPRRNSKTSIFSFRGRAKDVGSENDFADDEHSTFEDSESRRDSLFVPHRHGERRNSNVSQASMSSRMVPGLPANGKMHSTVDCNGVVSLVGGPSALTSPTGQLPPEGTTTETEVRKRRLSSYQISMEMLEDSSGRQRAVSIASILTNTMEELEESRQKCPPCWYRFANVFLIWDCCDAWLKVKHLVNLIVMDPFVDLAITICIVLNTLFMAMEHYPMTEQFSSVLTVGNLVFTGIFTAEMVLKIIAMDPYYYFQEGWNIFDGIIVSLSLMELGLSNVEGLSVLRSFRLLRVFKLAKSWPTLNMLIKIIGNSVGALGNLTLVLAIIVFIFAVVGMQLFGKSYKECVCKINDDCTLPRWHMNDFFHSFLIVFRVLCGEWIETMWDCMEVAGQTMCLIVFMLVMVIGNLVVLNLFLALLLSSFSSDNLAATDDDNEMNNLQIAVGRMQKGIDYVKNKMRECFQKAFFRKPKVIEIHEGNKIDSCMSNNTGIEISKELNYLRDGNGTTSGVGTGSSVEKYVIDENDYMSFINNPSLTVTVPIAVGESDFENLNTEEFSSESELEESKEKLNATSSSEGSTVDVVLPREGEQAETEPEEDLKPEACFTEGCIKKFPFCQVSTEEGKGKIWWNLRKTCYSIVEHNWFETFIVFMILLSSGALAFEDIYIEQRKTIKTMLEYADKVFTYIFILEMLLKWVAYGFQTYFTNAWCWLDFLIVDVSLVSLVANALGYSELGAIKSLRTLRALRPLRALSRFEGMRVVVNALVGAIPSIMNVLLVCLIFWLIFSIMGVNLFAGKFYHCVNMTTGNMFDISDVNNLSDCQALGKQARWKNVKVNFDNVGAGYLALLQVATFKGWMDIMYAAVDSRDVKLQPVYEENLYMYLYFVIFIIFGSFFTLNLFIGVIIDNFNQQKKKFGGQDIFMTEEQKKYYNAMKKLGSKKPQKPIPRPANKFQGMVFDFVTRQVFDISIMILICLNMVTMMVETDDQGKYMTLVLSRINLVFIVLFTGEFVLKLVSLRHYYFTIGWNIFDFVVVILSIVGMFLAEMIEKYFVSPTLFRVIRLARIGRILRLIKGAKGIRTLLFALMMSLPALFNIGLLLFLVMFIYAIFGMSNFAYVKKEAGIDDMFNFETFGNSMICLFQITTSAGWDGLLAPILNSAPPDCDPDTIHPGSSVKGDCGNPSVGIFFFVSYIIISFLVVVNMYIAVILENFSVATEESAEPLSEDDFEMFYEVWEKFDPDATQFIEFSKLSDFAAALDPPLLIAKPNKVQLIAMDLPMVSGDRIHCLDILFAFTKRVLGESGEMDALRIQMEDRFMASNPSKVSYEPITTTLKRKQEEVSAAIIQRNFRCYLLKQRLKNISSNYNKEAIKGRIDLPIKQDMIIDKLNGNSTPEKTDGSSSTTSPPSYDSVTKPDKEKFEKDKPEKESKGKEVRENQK", "assay": "QPatch48 HT electrophysiology of NaV1.3 stably transfected into CHO cells", "assay_type": "cell-based", "details": "10 μM peptide, triplicate, vs separate negative control", "procedure": "Using human NaV1.3 stably transfected into Chinese Hamster Ovary (CHO) cells, electrophysiology was performed to measure ion channel activity using the QPatch48 HT (Sophion, Denmark). Experiments were performed in triplicate and using a concentration of peptide of 10 μM. A separate negative control was performed for each of the peptides. As positive control Amitriptyline was used."}, "[3]": {"tested_on": "ECM-related genes", "assay": "RT-qPCR expression of ECM-related genes in HDFa cells", "assay_type": "cell-based, human", "procedure": "A stock solution of the peptide was prepared in milli-Q water at 25 mg/mL. This stock was further diluted in the corresponding supplemented medium to obtain the final working concentrations of 0.05, 0.01 and 0.005 mg/mL. Untreated cells were used as negative control samples.\nThe relevant genes for which the expression was measured were: MMP1 (matrix metallopeptidase 1), HYAL1 (hyaluronidase 1), TIMP2 (TIMP metallopeptidase inhibitor 2), HAS1 (hyaluronan synthase 1), FBLN5 (fibulin 5), LOXL1 (lysyl oxidase like 1), COL4A1 (collagen type IV alpha 1 chain), COL3A1 (collagen type III alpha 1 chain) and COL7A1 (collagen type VII alpha 1 chain). The primers used for each of the genes were commercially available TaqMan Gene Expression Assay probes.\nBriefly, HDFa cells were seeded in 12-well plates at a density of 1.5×10^5 cells/well and maintained at standard culture conditions (106 Medium supplemented with 1% LSGS; 37° C., 95% Relative Humidity, 5% CO2) for 24 hours. Then, cells were treated with the above-mentioned peptide at 0.005, 0.01 or 0.05 mg/mL for additional 6 or 24 hours.\nCells were finally lysed, and RNA extraction was performed using Qiagen RNeasy Mini kit following manufacturer's instructions. Purified RNAs were used to generate the corresponding cDNAs by reverse transcription which served as templates for amplification. RT-qPCR was performed with the panel of TaqMan assay probes specified above and 2x gene expression Master Mix using StepOne plus Real-Time PCR instrument. Amplification included 40 cycles of: 15 seconds at 95° C. (denaturation) and 1 minute at 60° C. (Annealing and extension).\nThe obtained data were analyzed using the ΔΔCt method, which provides the target gene expression values as fold changes in the treated sample compared with an untreated basal sample. Both samples were normalized with the relative expression of a housekeeping gene GAPDH (Glyceraldehyde 3-phosphate dehydrogenase).\nThe steps for analysis included: • 1. Calculate the average Ct for each condition • 2. Calculate the ΔCT test sample and the ΔCT calibrator sample • 3. Calculate the ΔΔCT: ΔΔCT=ΔCT test sample−ΔCT calibrator sample • 4. Obtain ratio by 2^−ΔΔCT"}, "[4]": {"tested_on": "muscle contraction-related genes", "assay": "RT-qPCR expression of muscle contraction-related genes in myocytes", "assay_type": "cell-based, human", "details": "0.01 or 0.005 mg/mL, 24 h", "procedure": "A stock solution of the peptide was prepared in milli-Q water at 25 mg/mL. This stock was further diluted in the corresponding supplemented medium to obtain the final working concentrations of 0.01 and 0.005 mg/mL. Untreated cells were used as negative control samples.\nThe relevant genes for which the expression was measured were: SCN1B (Sodium Voltage-Gated Channel Beta Subunit 1), SCN4A (Sodium Voltage-Gated Channel Alpha Subunit 4), SCN3A (Sodium Voltage-Gated Channel Alpha Subunit 3), CALM3 (Calmodulin 3) and RAPSN (Receptor Associated Protein of the Synapse). The primers used for each of the genes were commercially available TaqMan Gene Expression Assay probes. The experiment was performed in vitro in myocytes, two concentrations of the peptide were tested (0.01 mg/ml and 0.005 mg/mL) at 24 h.\nBriefly, human skeletal muscle myoblasts were seeded in 12-well plates at a density of 1×10^5 cells/well and maintained at standard culture conditions (SKM-M medium supplemented with 1% Antibiotic/Antimycotic; 37° C., 95% Relative Humidity, 5% CO2) for 48-72 hours until the plated myoblasts reached 80-90% confluence. […]\nThe obtained data were analyzed using the ΔΔCt method, which provides the target gene expression values as fold changes in the treated sample compared with an untreated basal sample. […]"}, "[5]": {"tested_on": "Human Fibroblast (SF-TY JCRB)", "assay": "Hyaluronic acid synthesis in human skin fibroblasts (ELISA)", "assay_type": "cell-based", "details": "48 hours, first experimental session; for % HA content: negative control = 100", "procedure": "In this case the objective of this experiment was to evaluate in vitro the capability of the peptides of the present invention to increase Hyaluronic Acid (HA) synthesis or production in human skin fibroblasts. This evaluation was carried out by determination of HA amount after cell treatment with the peptide (at the different concentrations noted below), for 48 hours.\nThe experimental groups were: • Untreated cell cultures (negative control). • Cells treated with the peptide of the present invention (at 0.005 mg/mL, 0.01 mg/ml or 0.05 mg/mL).\nTreatment was performed for 48 hours. Treatments were performed in triplicate and in two different experimental sessions.\nThe experimental model used in this study were Human Fibroblast (SF-TY JCRB) cultivated in MEM with fetal bovine serum 10% and 1% antibiotics at 37° C., 5% CO2.\nCells were seeded in 96-well plate at 1×10^4 cells/well and maintained for 24 h at standard culture conditions (37° C., 95% Relative Humidity, 5% CO2) before the treatment was applied.\nAt the end of the experimental period, the determination of Hyaluronic synthesis was carried out by means of ELISA method. Commercial kits were used for this purpose. The test kit employed a two-site sandwich ELISA to quantitate HA in samples. Briefly, an antibody specific for HA was pre-coated onto a microplate; Standards and samples were pipetted into the wells and any HA present got bound by the immobilized antibody; after removing any unbound substances, a biotin-conjugated antibody specific for HA was added to the wells; after washing, Streptavidin conjugated Horseradish Peroxidase (HRP) was added to the wells; following a wash to remove any unbound avidin-enzyme reagent, a substrate solution was added to the wells and color developed in proportion to the amount of HA bound in the initial step. The color development was stopped, and the intensity of the color was measured. A calibration curve of known concentrations of standard hyaluronic acid was used to perform the determination of the tested samples.\nThe results are expressed as % of HA content in cell culture medium and cell lysate, which is calculated by stablishing the content of HA in the negative control as 100% and making the appropriate comparison with the rest of the samples."}, "[6]": {"tested_on": "HDFa cells", "assay": "Procollagen I alpha 1 release from HDFa cells (ELISA)", "assay_type": "cell-based, human", "details": "48 h", "procedure": "A stock solution of the peptide was prepared in water at 25 mg/mL. This stock was further diluted to obtain the final working concentrations of 0.01, 0.015 or 0.05 mg/mL in complete medium (Medium 106 supplemented with 2% LSGS). Untreated cells were used as basal condition.\nFor this study, HDFa cells were seeded in a 24-well plate at a density of 100,000 cells/well and maintained at standard culture conditions (Medium 106 supplemented with 2% LSGS; 37° C., 95% Relative Humidity, 5% CO2) for 24 hours.\nAfter 24 hours, cells were treated for 48 h with the peptide of the present invention mentioned above (0.01, 0.015 and 0.05 mg/mL). After treatments, supernatants were collected and centrifuged in order to eliminate cell debris and were kept at −80° C. until they were used for procollagen I alpha 1 quantification with a human procollagen I alpha 1 DuoSet ELISA kit according to manufacturer instructions. Each condition was performed at least in triplicate (n=3) in three independent experiments (N=3)."}, "[7]": {"tested_on": "HDFa cells", "assay": "Elastin synthesis in HDFa cells (Fastin Elastin Assay Kit)", "assay_type": "cell-based, human", "details": "0.01 and 0.015 mg/ml, 48 hours, vs untreated samples", "procedure": "A stock solution of the peptide was prepared in water at 25 mg/mL. This stock was further diluted to obtain the final working concentrations of 0.005, 0.01 or 0.015 mg/mL in complete medium (Medium 106 supplemented with 2% LSGS). Untreated cells were used as basal condition.\nFor this study, HDFa cells were seeded in a 12-well plate at a density of 120,000 cells/well and maintained at standard culture conditions (Medium 106+2% LSGS; 37° C., 95% Relative Humidity, 5% CO2) for 24 hours. Then, fibroblasts were treated for 48 hours with 0.005, 0.01 or 0.015 mg/mL of the peptide mentioned above. After treatment, cells were harvested for elastin quantification with the Fastin Elastin Assay Kit, according to manufacturer instructions. Each condition was performed at least in triplicate (n=3) in three independent experiments (N=3)."}, "[8]": {"details": "24 h, 0.05 mg/ml of the peptide"}},
  "note": "Marks after values point to notes of the source that are not given here. Ends that are not written are not given here.",
  "data": [
    {"compound": "NC1=N[C@H](O)[C@H]2[C@H]3O[C@]4(O)O[C@@H]([C@@H](O)[C@@]2(N1)[C@@H]4O)[C@]3(O)CO", "note": "[TTX, tetrodotoxin, reference compound]", "values": [
      {"measurement": "blocking effect on sodium channels", "setting": "[1]", "value": "full blocking effect"}
    ]},
    {"compound": "Lys-Arg-Arg-Tyr-Tyr-Cys-NH2 (KRRYYC-NH2) [SEQ ID NO: 2—NH2]", "values": [
      {"measurement": "inhibition of NaV1.3 inward currents", "setting": "[2]", "value": "increased and statistically significant effect"}
    ]},
    {"compound": "Lys-His-Arg-Ser-Tyr-NH2 (KHRSY-NH2) [SEQ ID NO: 3—NH2]", "values": [
      {"measurement": "inhibition of NaV1.3 inward currents", "setting": "[2]", "value": "increased and statistically significant effect"}
    ]},
    {"compound": "Ile-Glu-Pro-Tyr-Tyr-Val-NH2 (IEPYYV-NH2) [SEQ ID NO: 5—NH2]", "values": [
      {"measurement": "ranking of sodium channel inhibition among tested peptides at the lower concentration", "setting": "[1]; 0.005 mg/mL, SHSY-5Y cells", "value": "performed the best"}
    ]},
    {"compound": "KDRVY-NH2 [SEQ ID NO: 4—NH2, Lys-Asp-Arg-Val-Tyr-NH2]", "values": [
      {"measurement": "HYAL1 gene expression", "setting": "[3]; 6 h, 0.005 mg/ml of the peptide", "value": "downregulation"},
      {"measurement": "HAS1 gene expression", "setting": "[3]; 6 h, 0.05 mg/ml of the peptide", "value": "upregulation"},
      {"measurement": "COL3A1 gene expression", "setting": "[3]; 24 h, 0.01 mg/m of the peptide", "value": "upregulation"},
      {"measurement": "COL4A1 gene expression", "setting": "[3]; 24 h, 0.01 mg/m of the peptide", "value": "upregulation"},
      {"measurement": "MMP1 gene expression", "setting": "[3]; 24 h, 0.01 mg/m of the peptide", "value": "downregulation"},
      {"measurement": "COL7A1 gene expression", "setting": "[3]; [8]", "value": "upregulation"},
      {"measurement": "FBLN5 gene expression", "setting": "[3]; [8]", "value": "upregulation"},
      {"measurement": "LOXL1 gene expression", "setting": "[3]; [8]", "value": "upregulation"},
      {"measurement": "TIMP2 gene expression", "setting": "[3]; [8]", "value": "upregulation"},
      {"measurement": "expression of sodium channels and muscle contraction-related genes (SCN1B, SCN4A, SCN3A, CALM3, RAPSN)", "setting": "[4]", "value": "downregulate"},
      {"measurement": "% Variation with regard to negative control", "setting": "[5]; 0.005 mg/mL", "value": "7.57** %"},
      {"measurement": "% HA content", "setting": "[5]; 0.005 mg/mL", "value": "107.57** %"},
      {"measurement": "% Variation with regard to negative control", "setting": "[5]; 0.01 mg/mL", "value": "21.75*** %"},
      {"measurement": "% HA content", "setting": "[5]; 0.01 mg/mL", "value": "121.75*** %"},
      {"measurement": "% Variation with regard to negative control", "setting": "[5]; 0.05 mg/mL", "value": "39.21*** %"},
      {"measurement": "% HA content", "setting": "[5]; 0.05 mg/mL", "value": "139.21*** %"},
      {"measurement": "ranking of sodium channel inhibition among tested peptides at the two higher concentrations", "setting": "[1]; 0.01 and 0.05 mg/mL, SHSY-5Y cells", "value": "best results"},
      {"measurement": "increase of procollagen I alpha 1 protein release", "setting": "[6]; HDFa, 0.05 mg/mL (highest tested concentration)", "value": 53, "unit": "%"},
      {"measurement": "procollagen I alpha 1 protein release", "setting": "[6]; HDFa, 0.01, 0.015 and 0.05 mg/mL, vs untreated cells", "value": "increased at all tested concentrations, in a dose-dependent manner"},
      {"measurement": "elastin levels", "setting": "[7]", "value": "increase of elastin levels"}
    ]}
  ]
}
